Data taken from US12533309B2, “Minoxidil adjuvant therapies” (JUPITER WELLNESS, INC., priority 2018, dated 2026).
Several values for one entry are separate records, joined by “and”; a condition that tells them apart may be missing. Equal values may be shown once.

System: sulfotransferase in hair follicles
Assay: In-vitro evaluation of sulfotransferase up-regulation in plucked hair follicles
Format: cell-based, human
Details: for OD 405 (1)-(3), individual replicates / OD 405 Average: 24 h incubation, patient AB-001; for induction of sulfotransferase activity in plucked hair follicles (conclusion): 24 h
Procedure: The following experiment was conducted to assess the up-regulation of sulfotransferase in hair follicles by candidate compounds know to interact with human nuclear receptors (e.g., PXR and CAR).
Method: For each compound tested, 24 hairs were plucked from a human subject. […] 1 uL of DMSO with no compound was added to control samples. Hairs were allowed to incubate with the candidate compounds for 24 h at room temperature. All samples were run in triplicate, i.e., the data describe in the result section is an average of three samples tested.
After 24 h of incubation hairs were removed from the sample media and washed briefly with clean water. Hairs were trimmed to a length of ˜1 cm and immersed, bulb first, in 100 μL of an assay solution containing 50 mM phosphate buffer (pH8), 5 mM potassium p-nitrophenyl sulfate, 20 μM adenosine 3′,5′-diphosphate, 100 μM minoxidil and 5 mM MgCl2. Hairs were allowed to react with the solution for 24 hours at room temperature. After incubation, hairs were removed and the optical absorbance of the solution at 405 nm was determined with a spectrophotometer using a single scan and 1 cm path length.

[1] = 5 uM, DMSO control average 0.120 (Vitamin K2 run), 0.195 (Hyperforin run)
[2] = 10 uM, DMSO control average 0.120 (Vitamin K2 run), 0.241 (Genistein run)
[3] = 20 uM, DMSO control average 0.120
[4] = 0.2 uM, DMSO control average 0.195
[5] = 1 uM, DMSO control average 0.195
[6] = 25 uM, DMSO control average 0.241
[7] = 50 uM, DMSO control average 0.241

Row | OD 405 (1)-(3), individual replicates [3] | OD 405 Average [3] | induction of sulfotransferase activity in plucked hair follicles (conclusion) | Compound | OD 405 (1)-(3), individual replicates [1] | OD 405 Average [1] | OD 405 (1)-(3), individual replicates [2] | OD 405 Average [2] | OD 405 (1)-(3), individual replicates [4] | OD 405 Average [4] | OD 405 (1)-(3), individual replicates [5] | OD 405 Average [5] | OD 405 (1)-(3), individual replicates [6] | OD 405 Average [6] | OD 405 (1)-(3), individual replicates [7] | OD 405 Average [7]
1 | 0.145 and 0.208 and 0.144 | 0.166 | induced sulfotransferase activity | CC(C)=CCC/C(C)=C/CC/C(C)=C/CC/C(C)=C/CC1=C(C)C(=O)c2ccccc2C1=O [Vitamin K2, vitamin K2] | 0.176 and 0.211 and 0.173 | 0.187 | 0.339 and 0.138 and 0.180 | 0.219 |  |  |  |  |  |  |  | 
2 |  |  | induced sulfotransferase activity | O=c1c(-c2ccc(O)cc2)coc2cc(O)cc(O)c12 [Genistein, genistein] |  |  | 0.186 and 0.235 and 0.134 | 0.185 |  |  |  |  | 0.179 and 0.144 and 0.085 | 0.136 | 0.122 and 0.080 and 0.190 | 0.131

Row | Compound | OD 405 (1)-(3), individual replicates [3] | OD 405 Average [3] | induction of sulfotransferase activity in plucked hair follicles (conclusion) | OD 405 (1)-(3), individual replicates [1] | OD 405 Average [1] | OD 405 (1)-(3), individual replicates [2] | OD 405 Average [2] | OD 405 (1)-(3), individual replicates [4] | OD 405 Average [4] | OD 405 (1)-(3), individual replicates [5] | OD 405 Average [5] | OD 405 (1)-(3), individual replicates [6] | OD 405 Average [6] | OD 405 (1)-(3), individual replicates [7] | OD 405 Average [7]
3 | CC(C)=CCC[C@]1(C)[C@@H](CC=C(C)C)C[C@@]2(CC=C(C)C)C(=O)[C@]1(C(=O)C(C)C)C(=O)C(CC=C(C)C)=C2O [Hyperforin, hyperforin] |  |  | induced sulfotransferase activity | 0.523 and 0.506 and 0.489 | 0.506 |  |  | 0.411 and 0.360 and 0.298 | 0.356 | 0.475 and 0.402 and 0.369 | 0.415 |  |  |  | 
